# Measured values reported in patent US7517857B2, “Immune-modulating peptide” (POSCO, priority 2002, dated 2009).
# Where a SMILES comes first, the peptide text is derived from it. Where no end group is shown, it is not given here. [ ]: non-standard residue; d: D form.
# Experiments:
# Format in all cases: cell-based
# [1] = molecular target: T1, FPR (Homo sapiens, UniProt P21462); assay: Akt phosphorylation in FPR-expressing RBL-2H3 cells (immunoblot); settings: 10 μM peptides 2 min (WKYMVm time course 1 μM)
# T1 construct: expressed in transfected cells; host or cells: RBL-2H3 (rat basophilic leukemia) cells, G418-selected
# T1 sequence (P21462 1-350): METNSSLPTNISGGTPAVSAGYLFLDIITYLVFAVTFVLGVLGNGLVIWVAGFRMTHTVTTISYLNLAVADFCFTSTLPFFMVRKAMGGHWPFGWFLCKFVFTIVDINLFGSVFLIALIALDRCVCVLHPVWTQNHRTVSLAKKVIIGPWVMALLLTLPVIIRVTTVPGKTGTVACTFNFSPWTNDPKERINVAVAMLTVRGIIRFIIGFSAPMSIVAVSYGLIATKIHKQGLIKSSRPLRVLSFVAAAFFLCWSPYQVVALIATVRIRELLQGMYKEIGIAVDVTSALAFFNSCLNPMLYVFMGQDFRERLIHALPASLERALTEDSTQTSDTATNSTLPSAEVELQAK
# Description: (§1) It is well known that activation of chemoattractant receptors induces Akt activation via PI3K (19). Stimulation of cells with the peptides, electrophoresis and immunoblot analysis were performed according to the same method as in Example 5.
# (§2) FPR- or FPRL1-expressing RBL-2H3 cells were stimulated with 1 μM WKYMVm for various periods of time (FIG. 4A). Two cells were preincubated with a vehicle or 100 ng/ml of PTX (24 hr), 50 μM of LY294002 (15 min), 5 μM of GFX (15 min), 10 μM BAPTA/AM (60min), or 50 μM PD98059 (60 min) prior to treatment with 1 μM of WKYMVm (FIG. 4B). FPR- and FPRL1-expressing RBL2H3 cells were stimulated with 10 μM of WKYMVm and the present peptides for 2 min or 5 min, respectively (FIG. 4C). Each sample (30 μg of protein) was subjected to 10% SDS-PAGE and phosphorylated Akt was determined by immunoblot analysis with an anti-phospho-Akt antibody. A western blot analysis with an anti-Akt antibody was performed to confirm that the same amounts of samples were used for the experiments. The results are shown FIGS. 4A to 4C. Results of FIGS. 4A to 4C are the representative of 3 independent experiments.
# [2] = molecular target: T2, FPRL1 (Homo sapiens, UniProt P25090); assay: [Ca2+]i increase in FPRL1-expressing RBL-2H3 cells (fura-2)
# T2 construct: expressed in transfected cells; host or cells: RBL-2H3 (rat basophilic leukemia) cells, G418-selected
# T2 sequence (P25090 1-351): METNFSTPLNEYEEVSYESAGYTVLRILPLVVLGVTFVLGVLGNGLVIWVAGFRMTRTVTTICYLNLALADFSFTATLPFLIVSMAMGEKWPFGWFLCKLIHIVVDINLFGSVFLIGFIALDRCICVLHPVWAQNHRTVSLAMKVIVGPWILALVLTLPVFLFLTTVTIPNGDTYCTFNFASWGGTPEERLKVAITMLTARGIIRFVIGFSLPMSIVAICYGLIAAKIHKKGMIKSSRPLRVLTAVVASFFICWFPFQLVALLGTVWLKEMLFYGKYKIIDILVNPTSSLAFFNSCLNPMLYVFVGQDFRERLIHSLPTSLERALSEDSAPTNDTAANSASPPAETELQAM
# Description: […] The level of [Ca^2+]i was determined fluorometrically by Grynkiewicz's method using fura-2/AM (15). Briefly, prepared cells were incubated with 3 μM fura-2/AM at 37° C. for 50 min in a fresh serum-free RPMI 1640 medium under continuous stirring. 2×10^6 cells were aliquoted for each assay in Ca^2+-free Locke's solution (154 mM NaCl, 5.6 mM KCl, 1.2 mM MgCl2, 5 mM HEPES, pH 7.3, 10 mM glucose, and 0.2 mM EGTA). Fluorescence changes at the dual excitation wavelengths of 340 nm and 380 nm and the emission wavelength of 500 nm were measured, and the calibrated fluorescence ratio was translated into [Ca^2+]i. The peak level of the increased [Ca^2+]i was monitored.
# […] The level of [Ca^2+]i was determined by the same procedures as above. The peak level of the increased [Ca^2+]i was monitored.
# [3] = molecular target: T2, FPRL1; assay: ERK phosphorylation in FPRL1-expressing RBL-2H3 cells (immunoblot)
# Description: Cultured RBL-2H3 cells were aliquoted into 2×10^6 cells and stimulated with the indicated concentrations of WKYMVm and the peptides of the present invention for the indicated lengths of time. FPR- or FPRL1-expressing RBL-2H3 cells were stimulated with 1 μM WKYMVm for various periods of time (FIG. 3A). Two cells were preincubated with a vehicle or 100 ng/ml of PTX (24 hr), 50 μM of LY294002 (15 min), 5 μM of GFX (15 min), 10 μM BAPTA/AM (60 min), or 50 μM PD98059 (60 min) prior to 1 μM of WKYMVm treatment (FIG. 3B). FPR- or FPRL1-expressing RBL2H3 cells were stimulated with 10 μM of the peptides of the present invention for 2 min or 5 min, respectively (FIG. 3C).
# After stimulation, the cells were washed with serum-free RPMI and lysed in a lysis buffer (20 mM Hepes, pH 7.2, 10% glycerol, 150 mM NaCl, 1% Triton X-100, 50 mM NaF, 1 mM Na3VO4, 10 μg/ml leupeptin, 10 μg/ml aprotinin, and 1 mM phenylmethylsulfonyl fluoride). The detergent-insoluble materials were pelleted by centrifugation (12,000×g, 15 min, at 4° C.), and the soluble supernatant fraction was removed and stored at −80° C. or used immediately. Protein concentrations in the lysates were determined using the Bradford protein assay reagent.
# Each sample ([…] of protein) was subjected to 10% SDS-PAGE and phosphorylated ERK was determined by an immunoblot analysis with an anti-phospho-ERK antibody. Protein samples were prepared for electrophoresis by addition of a concentrated sample buffer. The portions in the samples were then separated by an 10% SDS-polyacrylamide gel using the buffer system described by Laemmli (17).
# Following the electrophoresis, a western blot analysis with an anti-ERK2 antibody was performed to confirm that the same amounts of samples were used for the experiments. The proteins were blotted onto nitrocellulose membranes. The nitrocellulose membranes were then blocked by incubation with TBS (Tris-buffered saline, 0.05% Tween-20) containing 5% non-fat dry milk. Subsequently, the membranes were incubated with anti-phospho-ERK antibody, anti-phospho-Akt antibody or anti-Akt antibody washed with TBS. For a PKC translocation assay, an antibody for PKC isozyme-specific was incubated. Antigen-antibody complexes were visualized after incubating the membrane with a 1:5000 diluted goat anti-rabbit IgG or goat anti-mouse IgG antibody coupled to horseradish peroxidase and using the enhanced chemiluminescence detection system.
# [4] = molecular target: T2, FPRL1; assay: Akt phosphorylation in FPRL1-expressing RBL-2H3 cells (immunoblot); settings: 10 μM peptides 5 min (WKYMVm time course 1 μM)
# Description: as §1, §2
compound,measurement,setting,value
"CSCC[C@H](NC(=O)CNC(=O)[C@H](CCCCN)NC(=O)[C@@H](N)Cc1c[nH]c2ccccc12)C(=O)N[C@H](C(=O)N[C@H](CCSC)C(N)=O)C(C)C [WKGMVm-NH2, Trp-Lys-Gly-Met-Val-D-Met-NH2] (H-WKGMV[dM]-NH2; N-terminus assumed)",Akt phosphorylation,[1],caused Akt phosphorylation
same,[Ca^2+]i increasing activity,[2],"showed [Ca^2+]i-increasing activity in FPRL1 cells, with a little lower affinity to FPRL1"
"CSCC[C@H](NC(=O)[C@H](CCCNC(=N)N)NC(=O)[C@H](CCCCN)NC(=O)[C@@H](N)Cc1c[nH]c2ccccc12)C(=O)N[C@H](C(=O)N[C@H](CCSC)C(N)=O)C(C)C [WKRMVm-NH2, Trp-Lys-Arg-Met-Val-D-Met-NH2] (H-WKRMV[dM]-NH2; N-terminus assumed)",Akt phosphorylation,[1],caused Akt phosphorylation
"CSCC[C@H](NC(=O)[C@H](Cc1ccc(O)cc1)NC(=O)[C@H](CCCCN)NC(=O)[C@@H](N)Cc1c[nH]c2ccccc12)C(=O)N[C@H](C(=O)N[C@H](CCSC)C(N)=O)C(C)C [WKYMVm-NH2, Trp-Lys-Tyr-Met-Val-D-Met-NH2, reference compound]",time of maximal ERKs activity after peptide treatment,[3]; 1 μM WKYMVm,5 min
same,ERKs phosphorylation/activation,[3]; 10 μM peptides 5 min (WKYMVm time course 1 μM),induced transient activation of ERKs
same,Akt phosphorylation,[1],caused Akt phosphorylation
same,Akt phosphorylation,[4],stimulated Akt phosphorylation
same,concentration showing maximal [Ca^2+]i increase activity,[2]; data not shown,10 nM
same,"EC50 (nM), intracellular calcium increase",[2]; fura-2 loaded,inactive
"WKYMVE-NH2 [WKYMVE-NH2, Trp-Lys-Tyr-Met-Val-Glu-NH2]",Akt phosphorylation,[1],caused Akt phosphorylation
"WKYMVR-NH2 [WKYMVR-NH2, Trp-Lys-Tyr-Met-Val-Arg-NH2]",Akt phosphorylation,[1],caused Akt phosphorylation
